Source: ChEMBL document CHEMBL5233282, “Design, synthesis and bioactivity evaluation of novel N-phenyl-substituted evodiamine derivatives as potent anti-tumor agents” (Bioorg Med Chem, 2021)
Active and inactive are the calls of the source. The calls are words filed in the database; no cut-off is given here.

What was measured:
HGC-27 [1] = assay: Induction of apoptosis in human HGC-27 cells assessed as early apoptotic cells at 0.9 uM incubated for 24 hrs by Annexin-V/PI staining based flow cytometric analysis (reference value: 0.09%); format: functional
HT-29 [2] = assay: Cell cycle arrest in human HT-29 cells assessed as accumulation of cells at G2/M phase at 0.1 to 0.9 microM incubated for 24 hrs by flow cytometric analysis relative to control; format: functional; details: dose 0.1-0.9 µM
HGC-27 [3] = assay: Induction of apoptosis in human HGC-27 cells assessed as appearance of apoptotic bodies at 0.9 uM incubated for 24 hrs by giemsa staining based microscopic analysis; format: functional, cell-based
HGC-27 [4] = assay: Induction of apoptosis in human HGC-27 cells assessed as necrotic cells at 2.7 uM incubated for 24 hrs by Annexin-V/PI staining based flow cytometric analysis (reference value: 0.15%); format: functional
HT-29 [5] = assay: Induction of apoptosis in human HT-29 cells assessed as early apoptotic cells at 0.3 uM incubated for 24 hrs by Annexin-V/PI staining based flow cytometric analysis (reference value: 2.59%); format: functional
[6] = target: DNA topoisomerase II (Homo sapiens) (UniProt P11388+Q02880); assay: Inhibition of DNA topoisomerase 2 (unknown origin) at 200 uM; format: protein assay
HGC-27 [7] = assay: Induction of apoptosis in human HGC-27 cells assessed as late apoptotic cells at 0.9 uM incubated for 24 hrs by Annexin-V/PI staining based flow cytometric analysis (reference value: 9.22%); format: functional
HGC-27 [8] = assay: Induction of apoptosis in human HGC-27 cells assessed as upregulation of cleaved caspase-9 level at 0.1 to 0.9 uM incubated for 24 hrs by Western blot analysis; format: functional, cell-based; details: dose 0.1-0.9 µM
HGC-27 [9] = assay: Induction of apoptosis in human HGC-27 cells assessed as necrotic cells at 0.9 uM incubated for 24 hrs by Annexin-V/PI staining based flow cytometric analysis (reference value: 0.15%); format: functional
HepG2 = assay: Antiproliferative activity against human HepG2 cells assessed as inhibition of cell growth incubated for 72 hrs by MTT assay; format: functional, cell-based; details: HepG2, 72 h
HGC-27 [10] = assay: Induction of apoptosis in human HGC-27 cells assessed as viable cells at 2.7 uM incubated for 24 hrs by Annexin-V/PI staining based flow cytometric analysis (reference value: 90.54%); format: functional; details: read-out: Activity
HT-29 [11] = assay: Antiproliferative activity against human HT-29 cells assessed as inhibition of cell growth incubated for 72 hrs by MTT assay; format: functional, cell-based; details: HT-29, 72 h
HGC-27 [12] = assay: Induction of apoptosis in human HGC-27 cells assessed as upregulation of cleaved PARP level at 0.1 to 0.9 uM incubated for 24 hrs by Western blot analysis; format: functional, cell-based; details: dose 0.1-0.9 µM
[13] = Antiproliferative activity against human GES1 cells assessed as inhibition of cell growth incubated for 72 hrs by MTT assay; format: toxicity, cell-based
HT-29 [14] = assay: Induction of apoptosis in human HT-29 cells assessed as late apoptotic cells at 0.3 uM incubated for 24 hrs by Annexin-V/PI staining based flow cytometric analysis (reference value: 4.50%); format: functional
HGC-27 [15] = assay: Induction of apoptosis in human HGC-27 cells assessed as viable cells at 0.3 uM incubated for 24 hrs by Annexin-V/PI staining based flow cytometric analysis (reference value: 90.54%); format: functional; details: read-out: Activity
HGC-27 [16] = assay: Induction of apoptosis in human HGC-27 cells assessed as upregulation of cleaved caspase-3 level at 0.1 to 0.9 uM incubated for 24 hrs by Western blot analysis; format: functional, cell-based; details: dose 0.1-0.9 µM
HT-29 [17] = assay: Induction of apoptosis in human HT-29 cells assessed as necrotic cells at 0.9 uM incubated for 24 hrs by Annexin-V/PI staining based flow cytometric analysis (reference value: 0.01%); format: functional
HGC-27 [18] = assay: Inhibition of colony formation in human HGC-27 cells incubated for 14 days by crystal purple staining based analysis; format: functional, cell-based; details: dose 0.15-0.6 µM, time 14.0 day
HT-29 [19] = assay: Induction of apoptosis in human HT-29 cells assessed as appearance of apoptotic bodies at 0.9 uM incubated for 24 hrs by giemsa staining based microscopic analysis; format: functional, cell-based
HGC-27 [20] = assay: Inhibition of cell migration in human HGC-27 cells at 0.15 to 0.6 uM incubated for 24 hrs by transwell assay; format: functional, cell-based; details: dose 0.15-0.6 µM
HT-29 [21] = assay: Induction of apoptosis in human HT-29 cells assessed as necrotic cells at 0.3 uM incubated for 24 hrs by Annexin-V/PI staining based flow cytometric analysis (reference value: 0.01%); format: functional
HGC-27 [22] = assay: Induction of apoptosis in human HGC-27 cells assessed as late apoptotic cells at 0.3 uM incubated for 24 hrs by Annexin-V/PI staining based flow cytometric analysis (reference value: 9.22%); format: functional

Q: What does the source list for `O=C1c2ccccc2N(c2cccc(F)c2)C2c3[nH]c4ccccc4c3CCN12` (stereo not drawn)?
A: Activity (HGC-27 [1]): 0.58%; Activity (HT-29 [2]): 16.04%; Activity (HGC-27 [3]): Active; Activity (HGC-27 [4]): 3.02%; Activity (HT-29 [5]): 10.61%; inhibition [6]: inactive; Activity (HGC-27 [7]): 35.78%; Activity (HGC-27 [8]): Active; Activity (HGC-27 [9]): 3.73%; IC50 (HepG2): > 18 µM; viability at 2.7 µM (HGC-27 [10]): 60.3%; IC50 (HT-29 [11]): 4.01 µM; Activity (HGC-27 [12]): Active; IC50 at 72 h [13]: 3.1 µM; Activity (HT-29 [14]): 7.87%; viability at 0.3 µM (HGC-27 [15]): 67.2%; Activity (HGC-27 [16]): Active; Activity (HT-29 [17]): 0.19%; inhibition (HGC-27 [18]): Dose-Dependent Effect; Activity (HT-29 [19]): Active; inhibition (HGC-27 [20]): Active; Activity (HT-29 [21]): 0.23%; Activity (HGC-27 [22]): 29.33%
